What was measured:
PI3K = test: Immunoblot of Akt phosphorylation at Ser473 (hallmark of PI3K activation) in cells exposed to cl-CD95L; type: cell-based, human; conditions: for effect on CD95-mediated PI3K activation (phosphorylation of Akt at serine 473): breast cancer / TNBC cells exposed to cl-CD95L; for effect on CD95-mediated activation of Aid: pre-treatment of mammary cancer cells, non-cytotoxic amounts
Procedure: (§1) Cells were lysed for 30 min at 4° C. in lysis buffer [25 mM HEPES (pH 7.4), 1% v/v Triton X-100, 150 mM NaCl, and 2 mM EGTA supplemented with a mix of protease inhibitors (Sigma-Aldrich)]. Protein concentration was determined by the bicinchoninic acid method (PIERCE, Rockford, Ill., USA) according to the manufacturer's protocol. Proteins were separated by SDS-PAGE and transferred to a nitrocellulose membrane (GE Healthcare, Buckinghamshire, England). […] The proteins were visualized with the enhanced chemiluminescence substrate kit (ECL, GE Healthcare).

[1] = system: TNBC breast cancer cell lines (Hs578T, MDA-MB-231 and MDA-MB-468); test: In vitro motility assay (Boyden chambers); type: cell-based, human; conditions: cells pre-treated with the agent (inhibitors at non-cytotoxic amounts), exposed to cl-CD95L
Procedure: Boyden chambers (Millipore, Molsheim, France) containing 8 μm pore membranes were cultured in 24-well plates. After hydration of the membranes, 10^5 cells were added to the top chamber in low serum (1%)-containing medium. […] Cells were cultured for 24 h at 37° C. in a 5% CO2 humidified incubator. To quantify invasion, cells were fixed with methanol and stained with Giemsa. Stained cells were then removed from the top side of the membrane using a cotton-tipped swab and five representative pictures for each insert were taken of the invading cells from the reverse side. For each experiment, cells were lysed and absorbance at 560 nm was measured.

c-yes = c-yes activation status (auto-phosphorylation at Tyrosine 426); type: cell-based, human; conditions: pre-treatment of mammary cancer cells, non-cytotoxic amounts
Procedure: as §1

NADPHox = test: Flow cytometry analysis of intracellular ROS (H2FDA); type: cell-based, human; conditions: pre-treatment with NADPHox inhibitor
Procedure: Cells were pre-incubated for 30 min at 37° C. with 3 μM of H2FDA resuspended in PBS. The cells were then pre-incubated for an additional 30 min with or without ROS inhibitors before stimulation with 100 ng/ml cl-CD95L for the indicated times. Cells were then washed and analyzed by FACScalibur (BD Bioscience).

EGFR = test: Ca2+ monitoring: EGF-induced Ca2+ response; type: cell-based, human; conditions: TNBC cells (MDA-MB-231) in presence of EGF
Procedure: For experiments on parent cell lines, breast cancer cells were loaded with Fura2-PE3-AM (1 μM) at room temperature for 30 min in Hank's Balanced Salt Solution (HBSS). […] To minimize UV light exposure, a 4×4 binning function was used. Fura2-AM was alternately excited at 340 and 380 nm, and the ratios of the resulting images (excitations at 340 and 380 nm and emission filter at 520 nm) were produced at constant intervals (10 seconds). […] Fratio reflects the intracellular Ca^2+ concentration changes. Each experiment was repeated 3 times, and for each experimental condition, the average of more than 20 single-cell traces was used.

[2] = system: CD95-mediated Ca2+ response; test: Ca2+ monitoring: CD95-mediated Ca2+ response; type: cell-based, human; conditions: TNBC cells exposed to cl-CD95L
Procedure: For experiments on parent cell lines, breast cancer cells were loaded with Fura2-PE3-AM (1 μM) at room temperature for 30 min in Hank's Balanced Salt Solution (HBSS). After washing with HBSS, the cells were incubated for 15 min in the absence of Fura2-AM to complete de-esterification of the dye. Cells were placed in the temperature controlled chamber (37° C.) of an inverted epifluorescence microscope (Olympus IX70) equipped with an ×40 UApo/340-1.15 W water-immersion objective (Olympus), and fluorescence micrograph images were captured at 510 nm and 12-bit resolution by a fast-scan camera (CoolSNAP fx Monochrome, Photometrics). To minimize UV light exposure, a 4×4 binning function was used. […]
For experiments on GFP-expressing cell lines, Fluo8-AM was used, instead of Fura2-PE3-AM for experiments with GFP-expressing cells (infected with shRNA-expressing lentivirus), because GFP fluorescence disturbs Ca^2+ measurement with Fura2-PE3. Efficiently transduced cells (GFP expressing cells) were located by their emission of fluorescence at 530±30 nm for a light excitation at 485±22 nm. Ca^2+ changes were evaluated by exciting Fluo8-AM-loaded cells at […]. The values of the emitted fluorescence (605±50 nm) for each cell (F) were normalized to the starting fluorescence (F0) and reported as F/F0 (relative Ca^2+[CYT]). […]

CD95 (human) = CD95 (human) (UniProt P25445); test: cell-based or functional assay
Nox-1 = molecular target: T1, Nox-1 (human, UniProt Q9Y5S8 1-564, limits assumed); test: co-immunoprecipitation of CD95 (MISC) from MDA-MB-231 cells stimulated with cl-CD95L
T1 sequence (looked up): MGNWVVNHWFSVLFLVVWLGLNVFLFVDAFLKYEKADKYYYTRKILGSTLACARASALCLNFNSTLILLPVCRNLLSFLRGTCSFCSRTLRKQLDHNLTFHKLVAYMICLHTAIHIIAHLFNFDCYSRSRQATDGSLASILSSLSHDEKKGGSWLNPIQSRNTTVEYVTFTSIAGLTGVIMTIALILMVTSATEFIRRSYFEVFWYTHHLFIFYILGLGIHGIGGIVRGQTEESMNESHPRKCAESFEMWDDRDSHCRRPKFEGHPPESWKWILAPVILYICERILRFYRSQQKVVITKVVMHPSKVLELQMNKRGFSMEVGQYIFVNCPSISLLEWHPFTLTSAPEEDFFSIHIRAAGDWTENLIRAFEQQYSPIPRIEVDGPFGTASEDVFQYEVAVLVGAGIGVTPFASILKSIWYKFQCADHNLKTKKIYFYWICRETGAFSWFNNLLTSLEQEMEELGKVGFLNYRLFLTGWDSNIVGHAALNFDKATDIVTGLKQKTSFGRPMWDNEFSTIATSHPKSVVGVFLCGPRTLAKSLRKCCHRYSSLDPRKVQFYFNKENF
Procedure: (§2) The cells were then lysed, 1 μg of Apo1-3 was added to the cell lysate and CD95 was immunoprecipitated by the addition of protein A-sepharose beads (Sigma-Aldrich). […] After extensive washing, the immune complex was resolved by SDS-PAGE.

Nox-4 = molecular target: T2, Nox-4 (human, UniProt Q9NPH5 1-578, limits assumed); test: as above
T2 sequence (looked up): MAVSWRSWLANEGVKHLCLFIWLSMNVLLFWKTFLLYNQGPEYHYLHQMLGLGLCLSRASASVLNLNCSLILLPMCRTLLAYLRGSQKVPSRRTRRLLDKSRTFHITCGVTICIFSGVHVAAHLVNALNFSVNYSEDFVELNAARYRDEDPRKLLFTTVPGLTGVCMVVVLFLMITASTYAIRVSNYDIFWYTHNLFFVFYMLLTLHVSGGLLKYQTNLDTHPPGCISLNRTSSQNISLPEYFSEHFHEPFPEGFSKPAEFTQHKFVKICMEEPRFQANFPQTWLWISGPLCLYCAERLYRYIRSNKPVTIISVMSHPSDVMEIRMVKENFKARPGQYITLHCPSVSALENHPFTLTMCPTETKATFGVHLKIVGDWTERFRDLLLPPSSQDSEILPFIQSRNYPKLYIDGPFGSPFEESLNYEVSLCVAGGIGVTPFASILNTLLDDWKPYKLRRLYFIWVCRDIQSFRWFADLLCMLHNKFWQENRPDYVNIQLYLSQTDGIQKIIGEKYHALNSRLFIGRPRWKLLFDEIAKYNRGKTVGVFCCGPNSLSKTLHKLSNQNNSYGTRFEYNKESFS
Procedure: as §2

Nox-2 = molecular target: T3, Nox-2 (human, UniProt P04839 2-570); test: as above
T3 sequence (looked up): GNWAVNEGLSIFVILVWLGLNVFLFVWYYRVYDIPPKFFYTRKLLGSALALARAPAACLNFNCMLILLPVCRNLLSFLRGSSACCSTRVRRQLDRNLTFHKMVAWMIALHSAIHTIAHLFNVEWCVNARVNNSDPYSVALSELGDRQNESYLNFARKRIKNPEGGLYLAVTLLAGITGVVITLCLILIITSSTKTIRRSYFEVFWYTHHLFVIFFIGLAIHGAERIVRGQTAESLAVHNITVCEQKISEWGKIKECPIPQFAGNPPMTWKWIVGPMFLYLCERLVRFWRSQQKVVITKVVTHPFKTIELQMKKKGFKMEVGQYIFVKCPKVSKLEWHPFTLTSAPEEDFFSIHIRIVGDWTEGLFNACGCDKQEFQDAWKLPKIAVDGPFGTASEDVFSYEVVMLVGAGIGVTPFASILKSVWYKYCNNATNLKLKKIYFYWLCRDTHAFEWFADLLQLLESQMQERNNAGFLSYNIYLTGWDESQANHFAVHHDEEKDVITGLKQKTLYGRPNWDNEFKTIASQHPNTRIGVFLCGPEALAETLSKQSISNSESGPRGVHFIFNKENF
Procedure: as §2

Molecule: CC(=O)OCOC(=O)CN(CC(=O)OCOC(C)=O)c1ccccc1OCCOc1ccccc1N(CC(=O)OCOC(C)=O)CC(=O)OCOC(C)=O [BAPTA-AM, 1,2-bis-(o-Aminophenoxy)ethane-N,N,N′,N′-tetraacetic Acid Tetra-(acetoxymethyl) Ester]
- effect on CD95-mediated PI3K activation (phosphorylation of Akt at serine 473) (PI3K): inhibited
- effect on migration of TNBC cells exposed to cl-CD95L [1]: inhibited

Molecule: Cc1nnsc1C(=O)Nc1ccc(-n2nc(C(F)(F)F)cc2C(F)(F)F)cc1 [BTP2]
- effect on CD95-mediated PI3K activation (phosphorylation of Akt at serine 473) (PI3K): inhibited
- effect on migration of TNBC cells exposed to cl-CD95L [1]: inhibited

Molecule: c1ccc2c(c1)[I+]c1ccccc1-2 [DPI, diphenyleneiodonium chloride]
- effect on CD95-mediated activation of c-yes (c-yes): impaired
- effect on cl-CD95L-induced increase in intracellular ROS (NADPHox): blocked
- effect on CD95-mediated activation of Aid (PI3K): impaired
- effect on migration of TNBC cells exposed to cl-CD95L [1]: inhibited cell migration

Molecule: COc1cc(C(C)=O)ccc1O [apocynin]
- effect on CD95-mediated activation of c-yes (c-yes): impaired
- effect on cl-CD95L-induced increase in intracellular ROS (NADPHox): blocked
- effect on CD95-mediated activation of Aid (PI3K): impaired
- effect on migration of TNBC cells exposed to cl-CD95L [1]: inhibited cell migration

Molecule: C#Cc1cccc(Nc2ncnc3cc(OCCOC)c(OCCOC)cc23)c1 [erlotinib]
- effect on EGF-induced Ca2+ response (EGFR): blocked
- effect on EGF-induced Ca2+ response (EGFR; listed as Erlotinib): abolished
- effect on CD95-mediated PI3K activation (phosphorylation of Akt at serine 473) (PI3K): prevented
- effect on migration of TNBC cells exposed to cl-CD95L [1]: abolished
- effect on CD95-mediated Ca2+ response [2]: neither treatment with erlotinib nor EGFR silencing altered
- effect on CD95-mediated Ca2+ response ([2]; listed as Erlotinib): do not alter

Molecule: metalloprotease-cleaved CD95L (from UniProt P48023 130-281) (ligand)
- cell migration (Boyden chamber) of TNBC cells (CD95 (human)): 100 pg/mL

B1: CD95 (receptor)
chain: QVTDINSKGLELRKTVTTVETQNLEGLHHDGQFCHKPCPPGERKARDCTVNGDEPDCVPCQEGKEYTDKAHFSSKCRRCRLCDEGHGLEVEINCTRTQNTKCRCKPNFFCNSTVCEHCDPCTKCEHGIIKECTLTSNTKCKEEGSRSNLGWLCLLLLPIPLIVWVKRKEVQKTCRKHRKENQGSHESPTLNPETVAINLSDVDLSKYITTIAGVMTLSQVKGFVRKNGVNEAKIDEIKNDNVQDTAEQKVQLLRNWHQLHGKKEAYDTLIKDLKKANLCTLAEKIQTIILKDITSDSENSNFRNEIQSLV
notes: also called Fas; FasR
- binding result (Nox-1): no binding
- binding result (Nox-4): no binding
- binding result (Nox-2): no binding
